Test results from US10576102B2, “KOC1-derived peptide and vaccine including same” (ONCOTHERAPY SCIENCE, INC., priority 2014, dated 2020).
“Also recorded” adds a separate entry of the source.

Key:
Type in all cases: cell-based, human
[1] = system: peptide-pulsed C1R-A33; test: In vitro CTL induction, IFN-gamma ELISPOT assay (HLA-A*3303); conditions: CTLs induced with peptide-pulsed DCs from HLA-A*3303-positive volunteers, day 21, vs peptide-pulsed C1R-A33, compared with unpulsed control
Method: (§1) C1R (C1R-A33) that stably expresses HLA-A*3303 was used as a stimulator cell. A cDNA encoding the open-reading frame of HLA-A*3303 was amplified by PCR and cloned into an expression vector. C1R cells were transfected with the expression vector, and then selected using G418 (Invitrogen) for two weeks. The G418-selected cells were seeded into wells containing G418-added culture medium in a 96-well plate, and further cultured for 30 days. The exogenous HLA-A*3303 expression in C1R cells was verified by flow cytometric analysis.
(§2) Monocyte-derived dendritic cells (DCs) were used as the antigen-presenting cell to induce a cytotoxic T lymphocyte (CTL) response against peptides presented on human leukocyte antigens (HLAs). As described in the other sections, DCs were generated in vitro (Nakahara S et al., Cancer Res 2003, 63(14): 4112-8). Specifically, peripheral-blood mononuclear cells isolated from healthy volunteers (HLA-A*3303-positive) with the Ficoll-Paque plus solution (Pharmacia) were separated by attaching to plastic tissue culture dishes (Becton Dickinson) and concentrated as a monocyte fraction. The monocyte-concentrated population was cultured in the presence of 1000 IU/ml granulocyte macrophage colony-stimulating factor (R&D System) and 1000 IU/ml interleukin(IL)-4 (R&D System) in an AIM-V medium (Invitrogen) containing 2% heat-inactivated autologous serum (AS). After seven days of culturing, the cytokine-induced DCs were pulsed with 20 micro-g/ml each of the synthesized peptides in an AIM-V medium at 37 degrees C. for three hours in the presence of 3 micro-g/ml beta 2-microglobulin. The generated cells appeared to express on their cell surface DC-associated molecules such as CD80, CD83, CD86 and HLA class II (data not shown). Next, these peptide-pulsed DCs were inactivated by X-ray irradiation (20 Gy), and mixed in a 1:20 ratio with autologous CD8^+ T cells obtained by positive selection using the CD8 Positive Isolation Kit (Dynal). These culture products were seeded in a 48-well plate (Corning). Each well was made to contain 1.5×10^4 peptide-pulsed DCs, 3×10^5 CD8^+ T cells and 10 ng/ml IL-7 (R&D System) in 0.5 ml of the AIM-V/2% AS medium. Three days later, these culture products were added with a final concentration of 20 IU/ml IL-2 (CHIRON). On day 7 and day 14, T cells were further stimulated with peptide-pulsed autologous DCs. The DCs were prepared every time by the same method as above. On day 21, after the third peptide stimulation, CTLs were examined against the peptide-pulsed C1R-A33 cell by a human interferon (IFN)-gamma enzyme-linked immunospot (ELISPOT) assay (Tanaka H et al., Br J Cancer 2001, 84(1): 94-9; Umano Y et. al., Br J Cancer 2001, 84(8): 1052-7; Uchida N et al., Clin Cancer Res 2004, 10(24): 8577-86; Suda T et al., Cancer Sci 2006, 97(5): 411-9; Watanabe T et al., Cancer Sci 2005, 96(8): 498-506).
(§3) Specifically, peptide-pulsed C1R-A33 (1×10^4 cells/well) was prepared as the stimulator cell. The induced CTLs, i.e., CTL lines and CTL clones, were used as the responder cell. The IFN-gamma ELISPOT assay and IFN-gamma ELISA were performed according to the manufacturer's manual.

[2] = system: peptide-pulsed C1R-A01; test: In vitro CTL induction, IFN-gamma ELISPOT assay (HLA-A*0101); conditions: CTLs induced with peptide-pulsed DCs from HLA-A*0101-positive volunteers, day 21, vs peptide-pulsed C1R-A01, compared with unpulsed control
Method: as §1, with “(C1R-A01)” for “(C1R-A33)”, “HLA-A*0101” for “HLA-A*3303”
as §2, with “(HLA-A*0101-positive)” for “(HLA-A*3303-positive)”, “2-microglobulin.” for “2-microglobulin. The generated cells appeared to express on their cell surface DC-associated molecules such as CD80, CD83, CD86 and HLA class II (data not shown).”, “CTL activities” for “CTLs”, “C1R-A01 cells” for “C1R-A33 cell by a human interferon (IFN)-gamma enzyme-linked immunospot (ELISPOT) assay”, “et” for “et.”
Specifically, peptide-pulsed C1R-A01 (1×10^4 cells/well) was prepared as the stimulator cell. The induced CTLs, i.e., CTL lines and CTL clones, were used as the responder cell. The IFN-gamma ELISPOT assay and IFN-gamma ELISA were performed according to the manufacturer's manual.

[3] = system: peptide-pulsed C1R-A33; test: IFN-gamma ELISA of CTL lines and CTL clones (HLA-A*3303); conditions: for IFN-gamma production of CTL clones, ELISA: CTL clones by limiting dilution, peptide-pulsed C1R-A33; for IFN-gamma production of CTL lines, ELISA: target cells pulsed with the peptide vs not pulsed, C1R-A33
Method: CTLs were propagated in culture using methods similar to those disclosed by Riddell et al. (Walter E A et al., N Engl J Med 1995, 333(16): 1038-44; Riddell S R et al., Nat Med 1996, 2(2): 216-23). The CTLs were co-cultured in a total of 25 ml AIM-V medium containing 5% AS (AIM-V/5% AS) and 40 ng/ml anti-CD3 antibody with two types of Mitomycin C-treated human B lymphoblastoid cell lines at 5×10^6 cells/flask. One day after beginning of the culturing, 120 IU/ml IL-2 was added to the culture. On days 5, 8 and 11, a fresh AIM-V/5% AS medium containing 30 IU/ml IL-2 was added to the culture (Tanaka H et al., Br J Cancer 2001, 84(1): 94-9; Umano Y et al., Br J Cancer 2001, 84(8): 1052-7; Uchida N et al., Clin Cancer Res 2004, 10(24): 8577-86; Suda T et al., Cancer Sci 2006, 97(5): 411-9; Watanabe T et al., Cancer Sci 2005, 96(8): 498-506).
Dilution of CTLs was carried out to make 0.3, 1 and 3 cells/well in 96 round-bottomed microtiter plates (Nalge Nunc International). The CTLs were co-cultured with two types of Mitomycin C-treated human B lymphoblastoid cell lines at 1×10^4 cells/well in a total of 150 micro-1/well AIM-V/5% AS medium with 30 ng/ml anti-CD3 antibody and 125 IU/ml IL-2. Ten days later, IL-2 was added to the medium at 50 micro-1/well to reach a final concentration of 125 IU/ml. On day 14, the CTL activity was tested, and the CTL clones were propagated using the same method as described above (Uchida N et al., Clin Cancer Res 2004, 10(24): 8577-86; Suda T et al., Cancer Sci 2006, 97(5): 411-9; Watanabe T et al., Cancer Sci 2005, 96(8): 498-506).
as §3

ELTLYNPER (a peptide derived from KOC1) [SEQ ID NO: 63]
peptide-specific CTL activity (IFN-gamma production), ELISPOT [1]: potent IFN-gamma production

ETETVHLFI (a peptide derived from KOC1) [SEQ ID NO: 90]
peptide-specific CTL activity (IFN-gamma production), ELISPOT [2]: potent IFN-gamma production

FYACQVAQR (a peptide derived from KOC1) [SEQ ID NO: 61]
peptide-specific CTL activity (IFN-gamma production), ELISPOT [1]: potent IFN-gamma production | IFN-gamma production of CTL clones, ELISA ([3]; listed as KOC1-A33-9-543): Potent IFN-gamma production | IFN-gamma production of CTL lines, ELISA [3]: potent IFN-gamma production

FYACQVAQRK (a peptide derived from KOC1) [SEQ ID NO: 79]
peptide-specific CTL activity (IFN-gamma production), ELISPOT [1]: potent IFN-gamma production

ISPLQELTLY (a peptide derived from KOC1) [SEQ ID NO: 46]
peptide-specific CTL activity (IFN-gamma production), ELISPOT [2]: potent IFN-gamma production

LAHNNFVGR (a peptide derived from KOC1) [SEQ ID NO: 62]
peptide-specific CTL activity (IFN-gamma production), ELISPOT [1]: potent IFN-gamma production | IFN-gamma production of CTL clones, ELISA ([3]; listed as KOC1-A33-9-282): Potent IFN-gamma production | IFN-gamma production of CTL lines, ELISA [3]: potent IFN-gamma production

LVKTGYAFV (a peptide derived from KOC1) [SEQ ID NO: 74]
peptide-specific CTL activity (IFN-gamma production), ELISPOT [1]: potent IFN-gamma production

NNFVGRLIGK (a peptide derived from KOC1) [SEQ ID NO: 85]
peptide-specific CTL activity (IFN-gamma production), ELISPOT [1]: potent IFN-gamma production

QGQHIKQLSR (a peptide derived from KOC1) [SEQ ID NO: 80]
peptide-specific CTL activity (IFN-gamma production), ELISPOT [1]: potent IFN-gamma production

QSETETVHL (a peptide derived from KOC1) [SEQ ID NO: 92]
peptide-specific CTL activity (IFN-gamma production), ELISPOT [2]: potent IFN-gamma production

QSETETVHLF (a peptide derived from KOC1) [SEQ ID NO: 95]
peptide-specific CTL activity (IFN-gamma production), ELISPOT [2]: potent IFN-gamma production

SSAEVVVPR (a peptide derived from KOC1) [SEQ ID NO: 4]
peptide-specific CTL activity (IFN-gamma production), ELISPOT ([1]; listed as KOC1-A33-9-517): no specific IFN-gamma production; also recorded: specific IFN-gamma production was not observed

VVKITGHFY (a peptide derived from KOC1) [SEQ ID NO: 13]
peptide-specific CTL activity (IFN-gamma production), ELISPOT ([2]; listed as KOC1-A01-9-536): no specific IFN-gamma production; also recorded: specific IFN-gamma production was not observed

VVVKITGHFY (a peptide derived from KOC1) [SEQ ID NO: 41]
peptide-specific CTL activity (IFN-gamma production), ELISPOT [2]: potent IFN-gamma production
